Reference: US20240342128A1, “IMMUNE MEMORY INDUCTION BY PLATINUM BASED COMPOUNDS” (AKAMARA THERAPEUTICS, INC., priority 2016, published 2024)

What was measured:
splenic B cells [1] = assay: splenic B cells cultured with treatment conditioned media (TCM) from treated 4T1 cells, relative mRNA expression; format: cell-based, mice
Experimental: 4T1 cells were seeded in cell culture dishes in RPMI-1640 media containing 10% FBS. The cells were treated with Oxaliplatin and Compound 1 when they reached 60% confluence. Following a transient treatment of 6 hours, the media was removed and supplemented with fresh culture media. Cells were incubated at 37° C. for 24 hours. After 24 hours, the treatment conditioned media (TCM) was collected from each treatment and divided into two parts. One part was passed through 0.1 micron PES filters to obtain tumor conditioned media free of cell debris, with nucleic acids intact; while the other was passed through 0.1 micron Nylon membrane filters, where the nucleic acids would stick and get removed. The filtration process through Nylon membrane was repeated twice to remove all nucleic acids from the TCM. The harvested TCMs were used immediately for conditioning of B cells, isolated from naïve mice splenocytes using the EasySep Stem Cell B cell isolation kit as per manufacturers protocol. The B cells were incubated with conditioned media and harvested after 24 hours of incubation. RNA was isolated from the B cells and used for relative mRNA expression level evaluation of genes involved in B cell differentiation and TLR activation.

CD8+ T cells in tumors = assay: infiltration of cytotoxic CD8+ T-cells in treated tumors; format: in vivo; settings: FIG. 2B
LLC tumors = assay: immunohistochemical analysis of tumor sections, murine NSCLC tumor model; format: in vivo; settings: LLC tumors in C57/BL6 mice, two cycles of treatment, FFPE sections, FIG. 1B
Experimental: Murine NSCLC tumor model was generated by subcutaneously implanting LLC cells in C57/BL6 mice. Treatment with either Compound 1 or Oxaliplatin was initiated when average tumor volume reached 100 mm^3. Following two cycles of treatment, tumors were harvested and a portion fixed in formalin. FFPE sections were generated from the fixed tumors and immunohistochemical analysis of tumor sections was carried out for both T and B-cells.

4T1 tumors [2] = assay: tumor regression in immunocompetent versus immune-deficient mice strains; format: in vivo, mice (Balb/c, Jh−/−, SCID); settings: FIG. 4
Excerpt: To understand the role of immune components in tumor regression following treatment with Compound 1, tumor regression was studied in three different mice strains. These included immunocompetent mice (Balb/c); B cell-deficient mice (designated Jh^−/−) and mice lacking functional B cells and T cells (SCID). 4T1 cells were subcutaneously implanted in the three strains mentioned and when tumors reached an average volume of 100 mm^3, they were divided into two groups. One group was kept as control and the other treated with Compound 1 and the tumor volume in all the animals were recorded.

T cell receptor (TCR) = assay: activation of TCR; settings: in comparison to Oxaliplatin, FIG. 2A
4T1 cells [3] = assay: immune memory study: re-implantation of 4T1 cells; format: in vivo, Balb/c mice
Experimental: 4T1 cells were subcutaneously implanted in Balb/c mice to generate tumors. When tumors reached an average volume of 100 mm^3, they were treated with Compound 1. Two groups of Balb/c mice (non-tumor bearing) were either treated with Compound 1 or saline (designated Group 1 and 2 respectively; FIG. 3A).
Immune memory cells are poised to rapidly expand and induce effector functions upon recurrence, while existing in a functionally quiescent state. In order to check this hypothesis, we examined immune memory in Compound 1 treated tumors. […] The results also rule out the effect of any residual drug inducing tumor memory in non-tumor bearing animals.

4T1 cells [4] = assay: ds-RNA detection by propidium iodide staining after DNase/RNase treatment; format: cell-based
Experimental: 4T1 cells were grown on a coverslip in RPMI media to 70-80% confluency. The cells were treated with Compound 1 or Oxaliplatin. Detection of ds-RNA was a modification of protocol described by Kantarjian et al. (Kantarjian et al., Blood. 1985 July; 66(1):39-46). Following treatment, the coverslips were washed in phosphate-buffered saline (PBS) and fixed in 70% ice-cold ethanol. Cells were then washed with saline and treated with 1 mg/mL of DNase in 0.25 mol/L sucrose, 5 mmol/L MgCl2, and 20 mmol/L Tris-HCL (pH 6.5) at 37° C. for 60 min. In addition, another set of cells, subjected to Compound 1 or Oxaliplatin treatment were treated with RNase at a concentration of 5 mg/mL at 37° C. for 60 minutes. After another wash in PBS, the coverslips were exposed to propidium iodide at a final concentration of 50 μg/ml, diluted in a solution containing 10 mmol/L Tris-HCl (pH 7.4) and 5 mmol/L MgCl2. Stained cells were kept at 4° C. prior to microscopic analysis using a NIKON epi-fluorescence microscope using excitation wavelengths of 480 nm and emission wavelengths of 590 nm.

4T1 tumors [5] = assay: relative mRNA expression (qRT-PCR) of immune genes in harvested 4T1 tumors; format: in vivo; settings: 4T1 tumors in Balb/c mice, one cycle of treatment, FIG. 1A
Experimental: 4T1 cells were subcutaneously implanted in Balb/c mice to generate tumors. When tumors reached an average volume of 100 mm^3, they were treated with either Compound 1 or Oxaliplatin. After one cycle of treatment, following regression, tumors were harvested and a portion of the tumor from each group was used for total RNA isolation. The tumor infiltrating immune cells were evaluated for relative mRNA expression levels of immune activating and immune suppressive genes (Denkert et al., Clin Oncol. 2015; 33(9):983-91).

splenic B cells [6] = assay: relative mRNA expression of B cell differentiation and TLR activation genes in isolated splenic B cells; format: in vivo; settings: B cells from tumor bearing mice treated (Group 3), normalized to Group 1, FIG. 6B
Experimental: Mice splenic B cells were isolated from Group 1 and Group 3 mice, described in Example 3.
Spleen was harvested from mice (n=3) and minced into small pieces in RPMI-1640 basal media. The pieces were placed on top of a 40 mesh membrane and crushed with the back of a syringe and the single cell suspension was collected onto a 50 ml tube. The single cell suspension was washed twice with PBS to remove debris by centrifuging at 2000 rpm. Splenocytes were counted using haemocytometer and 100 million splenocytes were resuspended in 1 ml of isolation buffer (2% FBS, […] in DPBS) and transferred to a 5 ml polysterene tube. The B cells were isolated from splenocytes using the EasySep Stem Cell B cell isolation kit as per manufacturers protocol. Ten million B cells were used for RNA isolation, followed by relative mRNA expression levels of genes involved in B cell differentiation and TLR activation were evaluated.

Compound: CC(C)CCC[C@@H](C)[C@H]1CCC2C3CC=C4C[C@@H](OCCN(CC(=O)[O-])CC(=O)[O][Pt+]5[NH][C@@H]6CCCC[C@H]6[NH]5)CC[C@]4(C)C3CC[C@@]21C (stereo partly drawn) [Compound 1]
- B cell differentiation markers and TLR activation markers (relative mRNA) (splenic B cells [1]; TCM with nucleic acids intact (PES filter), 24 hours incubation, FIG. 7B): substantially increased
- relative level of B cell differentiation and TLR activation markers, nucleic acid depleted TCM (splenic B cells [1]; nucleic acids removed from TCM (Nylon membrane filter), FIG. 7C): substantially reduced
- infiltration of cytotoxic T cells (CD8+ T cells) in tumors (CD8+ T cells in tumors): infiltration of cytotoxic T cells
- B220 level by immunohistochemistry (LLC tumors): elevated levels
- IGKC level by immunohistochemistry (LLC tumors): elevated levels
- tumor regression in mice lacking immune cells (4T1 tumors [2]; 4T1 tumors in B cell-deficient (Jh−/−) and SCID mice, growth similar to control mice): Tumors do not regress
- tumor regression in immunocompetent mice (4T1 tumors [2]; 4T1 tumors in Balb/c mice): causes tumor regression only in immunocompetent mice
- activation of TCR (T cell receptor (TCR)): substantial activation of TCR
- tumor growth after implantation of 4T1 cells in treated non-tumor bearing mice (4T1 cells [3]; Group 1: non-tumor bearing Balb/c mice treated, similar to saline treated mice (Group 2), FIG. 3C): led to the growth of tumors
- tumor growth upon re-implantation of cancer cells (immune memory) (4T1 cells [3]; Group 3: animals that had previously undergone tumor regression with treatment, FIG. 3B): no tumor growth was observed upon re-implantation of cancer cells
- relative fluorescent intensity per field (dsRNA amount) (4T1 cells [4]; DNase treated samples, propidium iodide stain, FIG. 5C): enhancement of relative fluorescent intensity per field
- stability of RNA adducts (4T1 cells [4]; compared to Oxaliplatin): more stable RNA adducts
- IGKC mRNA levels in tumors (4T1 tumors [5]): significant increase in IGKC mRNA levels
- IGKC mRNA levels in splenic B cells (splenic B cells [6]): significant increase in IGKC mRNA levels
- expression of TLRs and CD80 in splenic B cells (splenic B cells [6]): elevated expression of TLRs and CD80
